Source: US12398117B2, “Heteroarylamidopyridinol derivative and pharmaceutical composition comprising same as active ingredient for prevention or treatment of autoimmune disease” (INNOVO THERAPEUTICS INC., priority 2019, dated 2025)

Legend:
[1] = tested on: DSS-induced chronic enteritis mouse model; assay: Oral efficacy in DSS-induced chronic enteritis mouse model; format: in vivo, C57BL/6 mice; settings: for Morphological observation of colon (length, macroscopic symptoms, adhesions, congestion): DSS mouse, sulfasalazine 300 mg/kg, tofacitinib 30 mg/kg, FIG. 2C; for Body weight recovery rate (%) / Intestinal weight recovery rate (%): chronic enteritis (DSS-water-DSS, total 35 days), mouse
Procedure: (§1) C57BL/6 mice aged 7-8 weeks were purchased from OrientBio (Korea), stabilized with general solid feed for 7 days, and then used in this experiment. Feed and water were freely supplied during the experiment period, and the temperature of the breeding room was maintained at 25±1° C. and the relative humidity at 50±10%. Lighting management was controlled in a 12-hour light-dark cycle by an automatic lighting controller.
(§2) Enteritis was induced in mice by allowing them to freely ingest drinking water containing 2% DSS salt (M.W. 36,000˜50,000, MP Biomedicals, LLC, OH, USA). For the chronic enteritis model, DSS was administered using a schedule of DSS administration for the first 7 days, administration of normal drinking water for 14 days, repeated administration of DSS for 7 days from the 21st day, and administration of normal drinking water for 7 days. The drug was administered once a day, 6 days a week from the first day of DSS treatment (FIG. 2A). […] In order to measure the dose-dependent therapeutic effect of the drug in the acute enteritis model, DSS was administered for 5 days to induce enteritis, and then the drug was administered for 14 days to measure the degree of recovery and treatment of enteritis (FIG. 3A). The drug was administered orally once daily for […] at a fixed time.
(§3) Changes in body weight of each mouse were observed during the DSS and drug administration using a digital mass meter.
(§4) The colon of the mouse was extracted, and the length and weight from the anus to the cecum were measured.
(§5) Tissue staining was performed in the same manner as in the case of hematoxylin/eosin staining of the rat colon tissue, and scoring indexes of mucosal damage and recovery were applied in the same way.

[2] = tested on: adhesion of intestinal epithelial cells (HT-29) and monocytic cells (U937) induced by IL-6; assay: Inhibition of IL-6-induced adhesion of monocytes and intestinal epithelial cells; format: cell-based, human; settings: Homo sapiens, 3 h; test drug 1 μM; IL-6 10 ng/mL; HT-29/U937; read-out: inhibitory activity (%)
Procedure: The inhibitory activity test for intestinal epithelial cell-monocyte adhesion by IL-6 was performed using the same method as in the case of TNF-α. HT-29 cells were cultured in a 24-well plate at the density of 2×10^5 cells/cm^2, and the test drug was pretreated in a medium containing 1% FBS and 1% PS for 1 hour. Thereafter, 10 μg/mL of BCECF-AM was treated thereto and reacted at 37° C. for 30 minutes. U937 cells loaded with BCECF and IL-6 (10 ng/mL) were reacted with HT-29 cells previously treated with the test drug at 37° C. for 3 hours. Upon completion of the reaction, the medium was removed, and the culture flask was washed twice with PBS to remove non-adherent U937 cells. In the next step, the cells were lysed by treating with 0.1% Triton X-100 (0.1 M Tris) and reacted at room temperature for 30 minutes. Then, fluorescence was measured and quantified using a fluostar optima microplate reader (BMG Labtechnologies, Germany).

[3] = tested on: collagen-induced rheumatoid arthritis animal model; assay: Oral efficacy in collagen-induced rheumatoid arthritis (CIA) mouse model; format: in vivo, DBA/1J mice; settings: oral, up to 35 days, FIG. 5A
Procedure: 12-week-old normal male mice and arthritis-induced DBA/1J mice were purchased from Central Lab. Animal Inc [To induce arthritis, DBA/1J mice were sensitized by injecting a mixed solution of Complete Freund's Adjuvant (CFA; DIFCO, Detroit, MI) and Bovine Type II collagen (1:1, v/v) intradermally at the pinna base at 8 weeks of age, and then, secondary sensitization was performed by intradermal injection at the tail head at 11 weeks of age]. The purchased arthritis mice were acclimatized to the laboratory environment for a week, and then oral administration of the drug was started.
Visual observation of arthritic lesions was performed using the following scores based on a reference (Barnett et al., 1998).
Therefore, the highest score for arthritic lesions was 16 per mouse.
The hind paw thickness, which is one of the pathological indices of rheumatoid arthritis, was measured using a caliper.
The right hind leg of each mouse was extracted, and all skin and muscles were removed, leaving only the bones and joints. The hind leg was fixed in 4% paraformaldehyde solution for 2 days, then immersed in 10% formic acid for 5 days to decalcify, and then immersed in 30% sucrose solution. When the tissue subsided, the articular tissue was cut into […] thick using a cryomicrotome (Microm HM 450, Thermo Fisher Scientific, Germany) and stored in a cryopreservation solution. Staining was performed using the stored tissue sections. After attaching the tissue sections to the slide glass, they were hydrated with 100%, 95%, 70%, and 50% ethanol solutions, and some were stained with safranin and others were stained with hematoxylin/eosin. For safranin staining, the tissue sections were first stained with 0.1% fast green solution, washed with 1% acetic acid solution, and then stained with 1% safranin solution. Thereafter, the tissue sections were dehydrated by immersing in ethanol solutions in the reverse order of hydration, and then preserved in xylene solution and mounting solution, and photographed under a microscope. Hematoxylin/eosin staining was performed in the same manner as in the colon tissue staining. The tissue sections were dehydrated, preserved in xylene solution and mounting solution, and observed under a microscope.
The degree of microscopic tissue damage of the stained articular tissue was measured using the following scores.
After the spleen and draining lymph nodes of the mice were extracted, the number of immune cells was counted. To confirm the distribution of Th1 and Th17 cells, the immune cells obtained from each organ were stimulated using PMA/Ionomycin and Golgi stop.
After staining using an anti-IFN-γ antibody that can identify Th1 cells, an anti-IL-17 antibody that can identify Th17 cells, and an anti-CD8 antibody that can identify cytotoxic T cells, the proportion of inflammatory cells among the total immune cells was confirmed using flow cytometry.

[4] = tested on: DSS-induced acute enteritis mouse model; assay: Oral efficacy in DSS-induced acute enteritis mouse model; format: in vivo, C57BL/6 mice; settings: acute enteritis (DSS), mouse
Procedure: as §1, §2, §3, §4
The degree of neutrophil infiltration in the tissue was measured by the amount of MPO, a neutrophil marker enzyme. The colon tissue with a size of 1 cm was washed with cold PBS and weighed, to which a lysis buffer (pH7.4, 200 mM NaCl, 5 mM EDTA, 10 mM tris, 10% glycerin, 1 mM PMSF, 1 μg/mL leupeptin and 28 μg/mL aprotinin) was added (500 μL of per 10 mg of tissue weight), and then homogenized using Bead Blaster® D2400 homogenizer (Benchmark Scientific, NJ, USA). […] (HK210, Hycult Biotechnology, Netherlands). The supernatant was added to a 96 well plate (100 μL/well) coated with an anti-mouse MPO antibody, and incubated for 1 hour at room temperature, followed by washing 3 times with a washing buffer. A reconstituted tracer was added to the plate (100 μL/well), which was reacted at room temperature for 1 hour, washed 3 times, and then 100 μL of streptavidin-peroxidase conjugate was added to each well of the plate. The plate was reacted at room temperature for 1 hour, washed, and 100 μl of TMB substrate solution was added to each well of the plate, followed by reaction for 30 minutes. The reaction was terminated by adding 100 μL of a stop solution to each well of the plate, and absorbance was measured at 450 nm. MPO activity means the amount of 1 μM […] at 25° C. for 1 minute. This was calculated as the amount of MPO contained in 1 mL of the colon tissue homogenate.
as §5

[5] = tested on: TNBS-induced inflammatory bowel disease rat model; assay: Oral efficacy in TNBS-induced inflammatory bowel disease rat model; format: in vivo, Sprague Dawley rats
Procedure: as §1, with “Sprague Dawley rats aged” for “C57BL/6 mice aged”, “for 3” for “for 7”
After anesthetizing rats that had been fasted for 24 hours with diethyl ether, 0.8 mL of 5% TNBS diluted with 50v/v % ethanol was slowly injected into the lumen of the colon using a 1 mL syringe connected to a polyethylene catheter, and then, the rats were left standing for 60 seconds in an inverted position in order to prevent 5% TNBS from leaking into the anus. For the control group, only vehicle [50v/v % ethanol] was injected in the same manner as in the other groups (Thapa et al., 2008).
In order to investigate the effect of the drug, the drug was administered at a constant time every day for 5 days from the day after the TNBS treatment.
Changes in body weight of each rat were observed from the fasting stage to the TNBS administration and drug administration process using a digital mass meter.
The colon of the rat was extracted, and the tissue 5-6 cm away from the anus was cut into a length of 1 cm, and the weight of the tissue was measured.
The weighed rat tissues were fixed with 4% paraformaldehyde solution, and then transferred to 30% sucrose solution. When the tissues subside, they were taken out and cut into […] thick using a cryomicrotome (Microm HM 450, Thermo Fisher Scientific, Germany) and stored in a cryopreservation solution. After washing the tissue section with KPBS, the tissue section was attached to a slide glass, dried, and then stained with hematoxylin & Eosin and observed under a microscope.

[6] = 30 mg/kg, listed as tofacitinib
[7] = 300 mg/kg, dose-dependence test (Table 7)

With `C[C@@H]1CCN(C(=O)CC#N)C[C@@H]1N(C)c1ncnc2[nH]ccc12` [Tofacitinib, reference compound] the “Morphological observation of colon (length, macroscopic symptoms, adhesions, congestion)” value [1] was “significantly suppressed”, the “Body weight recovery rate (%)” value ([1]; 30 mg/kg) was 29.5% and the “Intestinal weight recovery rate (%)” value ([1]; 30 mg/kg) was 68.2%. The “Body weight recovery rate (%)” value [1, 6] was 29.4%, the “Intestinal weight recovery rate (%)” value [1, 6] was 68.8% and the inhibition at 1 µM [2] was 49.1%. The “degree of arthritis (visual observation score)” value [3] was “significantly improved dose dependently”, the “Body weight recovery rate (%)” value ([4]; 30 mg/kg) was 80.8% and the “Intestinal weight recovery rate (%)” value ([4]; 30 mg/kg) was 80.9%. For the same molecule, the “Body weight recovery rate (%)” value [4, 6] was 80.9%.
`O=C(O)c1cc(/N=N/c2ccc(S(=O)(=O)Nc3ccccn3)cc2)ccc1O` [Sulfasalazine, reference compound] was tested, and the “Morphological observation of colon (length, macroscopic symptoms, adhesions, congestion)” value [1] was “significantly suppressed”, the “Body weight recovery rate (%)” value ([1]; 300 mg/kg) was 22.8% and the “Intestinal weight recovery rate (%)” value ([1]; 300 mg/kg) was 66.9%. The “Intestinal weight recovery rate (%)” value ([1]; 300 mg/kg, listed as sulfasalazine) was 67.3%, the “Body weight recovery rate (%)” value [5, 7] was 86.6% and the “Intestinal weight recovery rate (%)” value [5, 7] was 69.6%. The “Morphological observation of colon (visual symptoms, adhesions, congestion)” value ([5]; after 5 days of drug administration, sulfasalazine 300 mg/kg, X-09 0.3-10 mg/kg) was “significantly suppressed”, the “Intestinal weight recovery rate (%)” value ([5]; oral 300 mg/kg, 5 days, fixed-dose test (Table 6)) was 69.6% and the “Body weight recovery rate (%)” value ([5]; oral 300 mg/kg, 5 days, fixed-dose test (Table 6), 300 mg/kg) was 86.6%. The “Body weight recovery rate (%)” value ([5]; oral 300 mg/kg, 5 days, fixed-dose test (Table 6), listed as sulfasalazine, 300 mg/kg) was 50.5%, the “Body weight recovery rate (%)” value ([4]; 300 mg/kg) was 65.9% and the “Intestinal weight recovery rate (%)” value ([4]; 300 mg/kg) was 66.2%.
